What was measured:
[1] = target: influenza A neuraminidase (N1) (Influenza A virus, UniProt P03468); assay type: biochemical
[2] = test system: bacterial or mammalian neuraminidases; conditions: Colman, 1999; cited from earlier work
influenza neuraminidases = conditions: Colman, 1999; cited from earlier work

Chain of influenza A neuraminidase (N1) (P03468 whole entry): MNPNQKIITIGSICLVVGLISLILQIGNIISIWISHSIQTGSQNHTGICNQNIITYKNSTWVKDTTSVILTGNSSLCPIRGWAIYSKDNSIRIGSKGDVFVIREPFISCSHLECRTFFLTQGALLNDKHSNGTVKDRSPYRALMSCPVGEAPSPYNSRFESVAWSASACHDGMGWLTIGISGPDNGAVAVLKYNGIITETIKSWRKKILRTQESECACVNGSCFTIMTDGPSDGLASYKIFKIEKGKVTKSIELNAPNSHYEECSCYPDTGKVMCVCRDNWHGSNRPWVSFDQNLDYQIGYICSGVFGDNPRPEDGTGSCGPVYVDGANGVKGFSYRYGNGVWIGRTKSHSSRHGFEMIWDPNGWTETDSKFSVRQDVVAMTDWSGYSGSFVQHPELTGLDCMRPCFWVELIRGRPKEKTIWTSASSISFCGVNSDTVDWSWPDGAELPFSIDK

Row | Structure (SMILES) | potency as inhibitor compared with ATA [1] | potency against bacterial or mammalian neuraminidases [2] | potency against influenza neuraminidases (influenza neuraminidases)
1 | CC(=N)N[C@H]1[C@H]([C@H](NC(C)=O)[C@@H](C)O)OC(C(=O)O)=C[C@@H]1O [Compound 8, 5-acetamidino-7-acetamido-3,5,7,9-tetradeoxy-D-glycero-D-galacto-non-2-enonate] | not as potent an inhibitor as Aurintricarboxylic acid (ATA) |  | 
2 | CC(=O)N[C@H]1[C@H]([C@H](O)[C@H](O)CO)OC(C(=O)O)=C[C@@H]1N=C(N)N [zanamivir] |  | much less potent | very potent

From patent US8952183B2, “Inhibitors of sialidase or sialidase-like enzymes” (priority 2009, dated 2015)
